Read-outs that look alike come from different tables or passages of the source.
Assays:
[1] = target: AEA-DA lipid probe targets in Neuro2a cells (Mus musculus, UniProt P06795)
[2] = target: T1, AEA-DA lipid probe targets in Neuro2a cells (Mus musculus, UniProt O35887)
T1 sequence (O35887 20-315): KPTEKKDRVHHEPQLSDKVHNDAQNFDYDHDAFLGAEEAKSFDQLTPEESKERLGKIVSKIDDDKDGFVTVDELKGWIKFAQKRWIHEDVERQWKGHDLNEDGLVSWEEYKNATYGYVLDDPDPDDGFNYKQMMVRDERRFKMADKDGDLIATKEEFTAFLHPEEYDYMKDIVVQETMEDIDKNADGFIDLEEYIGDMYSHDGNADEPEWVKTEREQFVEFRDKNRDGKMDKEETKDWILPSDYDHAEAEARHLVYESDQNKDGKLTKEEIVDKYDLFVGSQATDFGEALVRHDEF

[3] = target: AEA-DA lipid probe targets in Neuro2a cells (Mus musculus, UniProt Q8VE88)
[4] = target: AEA-DA lipid probe targets in Neuro2a cells (Mus musculus, UniProt P52019); conditions: for SILAC ratio, SQLE (Q14534): Neuro2a cells, AEA-DA probe
[5] = target: T2, AEA-DA lipid probe targets in Neuro2a cells (Mus musculus, UniProt Q9QZD8)
T2 sequence (Q9QZD8 1-287): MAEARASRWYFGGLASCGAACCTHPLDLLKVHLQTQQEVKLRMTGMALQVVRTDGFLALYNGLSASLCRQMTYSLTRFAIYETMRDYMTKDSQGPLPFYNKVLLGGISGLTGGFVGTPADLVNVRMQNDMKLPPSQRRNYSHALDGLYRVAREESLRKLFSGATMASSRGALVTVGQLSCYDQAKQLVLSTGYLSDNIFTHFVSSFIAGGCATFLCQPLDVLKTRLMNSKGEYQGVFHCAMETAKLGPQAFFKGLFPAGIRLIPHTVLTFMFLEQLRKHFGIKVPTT

[6] = target: T3, AEA-DA lipid probe targets in Neuro2a cells (Mus musculus, UniProt Q9QY93)
T3 sequence (Q9QY93 1-170): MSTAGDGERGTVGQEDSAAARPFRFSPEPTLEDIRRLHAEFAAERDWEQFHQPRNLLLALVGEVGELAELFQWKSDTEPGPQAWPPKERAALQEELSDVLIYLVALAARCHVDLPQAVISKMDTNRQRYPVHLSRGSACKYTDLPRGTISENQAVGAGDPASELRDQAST

[7] = target: T4, AEA-DA lipid probe targets in Neuro2a cells (Mus musculus, UniProt P18572)
T4 sequence (P18572 22-389): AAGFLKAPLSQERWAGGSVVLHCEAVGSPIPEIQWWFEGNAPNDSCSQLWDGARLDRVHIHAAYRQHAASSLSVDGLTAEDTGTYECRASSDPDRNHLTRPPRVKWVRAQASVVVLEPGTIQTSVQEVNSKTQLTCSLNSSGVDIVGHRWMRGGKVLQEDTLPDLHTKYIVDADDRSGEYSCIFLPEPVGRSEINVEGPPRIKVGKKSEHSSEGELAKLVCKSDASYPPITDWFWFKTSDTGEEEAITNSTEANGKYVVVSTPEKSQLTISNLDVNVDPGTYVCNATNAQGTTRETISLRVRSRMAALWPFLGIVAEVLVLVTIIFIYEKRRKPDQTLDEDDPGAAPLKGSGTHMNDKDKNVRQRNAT

[8] = target: AEA-DA lipid probe targets in Neuro2a cells (Mus musculus, UniProt Q9D771)
[9] = target: T5, AEA-DA lipid probe targets in Neuro2a cells (Mus musculus, UniProt O70252); conditions: for SILAC ratio, HMOX2 (P30519): Neuro2a cells, AEA-DA probe
T5 sequence (O70252 1-315): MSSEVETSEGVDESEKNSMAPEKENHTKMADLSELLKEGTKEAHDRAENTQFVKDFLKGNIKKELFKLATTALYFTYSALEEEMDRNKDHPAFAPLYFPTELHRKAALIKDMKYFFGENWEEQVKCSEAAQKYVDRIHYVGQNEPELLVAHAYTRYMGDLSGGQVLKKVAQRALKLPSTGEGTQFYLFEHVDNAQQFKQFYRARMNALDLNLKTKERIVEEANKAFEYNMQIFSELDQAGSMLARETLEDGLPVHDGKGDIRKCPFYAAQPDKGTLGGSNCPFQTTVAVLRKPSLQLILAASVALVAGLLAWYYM

[10] = target: AEA-DA lipid probe targets in Neuro2a cells (Mus musculus, UniProt Q9Z0V8)
[11] = target: T6, AEA-DA lipid probe targets in Neuro2a cells (Mus musculus, UniProt Q61263)
T6 sequence (Q61263 1-540): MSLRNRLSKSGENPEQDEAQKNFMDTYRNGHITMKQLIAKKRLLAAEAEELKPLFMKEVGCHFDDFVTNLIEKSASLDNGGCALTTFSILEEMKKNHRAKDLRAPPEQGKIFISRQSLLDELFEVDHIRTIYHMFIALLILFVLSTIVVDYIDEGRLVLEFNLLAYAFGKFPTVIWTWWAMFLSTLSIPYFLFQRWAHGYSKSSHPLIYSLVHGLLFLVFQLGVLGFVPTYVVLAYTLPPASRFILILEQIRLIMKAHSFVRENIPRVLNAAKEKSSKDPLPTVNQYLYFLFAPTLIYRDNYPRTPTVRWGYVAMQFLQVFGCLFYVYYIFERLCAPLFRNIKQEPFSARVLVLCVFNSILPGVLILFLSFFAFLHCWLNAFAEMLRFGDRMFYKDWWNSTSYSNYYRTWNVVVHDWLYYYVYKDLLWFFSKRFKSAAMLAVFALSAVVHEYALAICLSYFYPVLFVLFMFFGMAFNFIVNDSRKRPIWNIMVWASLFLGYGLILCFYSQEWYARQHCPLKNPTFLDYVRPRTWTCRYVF

[12] = target: AEA-DA lipid probe targets in Neuro2a cells (Mus musculus, UniProt P36536)
Sequence of AEA-DA lipid probe targets in Neuro2a cells (Mus musculus, UniProt P36536) (P36536 whole entry): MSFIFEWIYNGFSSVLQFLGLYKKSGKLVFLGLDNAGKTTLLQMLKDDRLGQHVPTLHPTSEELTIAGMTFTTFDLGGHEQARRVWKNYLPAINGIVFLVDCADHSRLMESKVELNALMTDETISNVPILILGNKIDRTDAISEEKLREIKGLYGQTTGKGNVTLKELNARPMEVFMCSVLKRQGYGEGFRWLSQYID

Sequence of AEA-DA lipid probe targets in Neuro2a cells (Mus musculus, UniProt P06795) (P06795 whole entry): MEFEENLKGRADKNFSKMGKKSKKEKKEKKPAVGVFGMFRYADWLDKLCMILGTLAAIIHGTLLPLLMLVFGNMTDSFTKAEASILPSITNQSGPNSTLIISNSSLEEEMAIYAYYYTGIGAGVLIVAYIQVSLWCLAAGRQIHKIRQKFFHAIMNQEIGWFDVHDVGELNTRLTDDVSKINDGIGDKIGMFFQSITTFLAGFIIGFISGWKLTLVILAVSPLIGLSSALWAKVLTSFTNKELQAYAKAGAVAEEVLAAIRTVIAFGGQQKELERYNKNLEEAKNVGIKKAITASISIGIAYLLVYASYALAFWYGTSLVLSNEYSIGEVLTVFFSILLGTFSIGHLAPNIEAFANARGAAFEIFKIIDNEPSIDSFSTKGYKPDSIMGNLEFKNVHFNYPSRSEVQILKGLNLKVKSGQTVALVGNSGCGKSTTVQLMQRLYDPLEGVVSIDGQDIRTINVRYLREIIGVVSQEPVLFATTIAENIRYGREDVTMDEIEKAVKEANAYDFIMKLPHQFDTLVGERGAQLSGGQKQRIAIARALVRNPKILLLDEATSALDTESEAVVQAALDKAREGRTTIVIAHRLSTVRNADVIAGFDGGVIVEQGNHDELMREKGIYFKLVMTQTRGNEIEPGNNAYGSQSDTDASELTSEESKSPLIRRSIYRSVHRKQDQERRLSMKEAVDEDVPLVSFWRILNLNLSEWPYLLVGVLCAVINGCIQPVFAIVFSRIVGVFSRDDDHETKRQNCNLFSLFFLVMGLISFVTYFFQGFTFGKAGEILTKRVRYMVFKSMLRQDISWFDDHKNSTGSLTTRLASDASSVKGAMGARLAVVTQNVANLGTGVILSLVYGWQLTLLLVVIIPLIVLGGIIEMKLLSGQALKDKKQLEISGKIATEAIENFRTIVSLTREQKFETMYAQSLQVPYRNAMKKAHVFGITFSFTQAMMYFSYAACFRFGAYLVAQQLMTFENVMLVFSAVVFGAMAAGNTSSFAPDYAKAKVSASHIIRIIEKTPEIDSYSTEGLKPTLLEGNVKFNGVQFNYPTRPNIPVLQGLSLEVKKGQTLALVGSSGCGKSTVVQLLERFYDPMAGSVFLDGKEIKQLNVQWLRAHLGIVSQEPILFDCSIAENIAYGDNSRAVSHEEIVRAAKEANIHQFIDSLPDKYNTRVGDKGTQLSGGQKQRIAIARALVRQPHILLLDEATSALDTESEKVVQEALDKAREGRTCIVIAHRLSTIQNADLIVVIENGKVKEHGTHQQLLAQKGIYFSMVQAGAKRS
Sequence of AEA-DA lipid probe targets in Neuro2a cells (Mus musculus, UniProt Q9D771) (Q9D771 whole entry): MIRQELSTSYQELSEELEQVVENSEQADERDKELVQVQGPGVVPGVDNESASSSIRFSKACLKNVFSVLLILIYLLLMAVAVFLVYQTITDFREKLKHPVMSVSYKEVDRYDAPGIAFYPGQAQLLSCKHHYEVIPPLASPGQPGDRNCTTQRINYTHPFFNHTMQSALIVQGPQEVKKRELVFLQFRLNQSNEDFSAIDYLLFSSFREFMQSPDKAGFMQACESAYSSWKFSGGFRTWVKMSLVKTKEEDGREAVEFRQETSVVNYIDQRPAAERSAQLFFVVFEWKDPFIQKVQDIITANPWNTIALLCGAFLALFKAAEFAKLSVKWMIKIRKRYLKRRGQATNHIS
Sequence of AEA-DA lipid probe targets in Neuro2a cells (Mus musculus, UniProt Q9Z0V8) (Q9Z0V8 whole entry): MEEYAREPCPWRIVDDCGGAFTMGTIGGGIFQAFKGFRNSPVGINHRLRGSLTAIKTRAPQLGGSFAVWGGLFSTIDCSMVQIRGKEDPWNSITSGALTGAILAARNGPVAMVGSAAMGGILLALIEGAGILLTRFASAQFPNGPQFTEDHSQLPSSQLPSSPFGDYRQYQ
Sequence of AEA-DA lipid probe targets in Neuro2a cells (Mus musculus, UniProt P52019) (P52019 whole entry): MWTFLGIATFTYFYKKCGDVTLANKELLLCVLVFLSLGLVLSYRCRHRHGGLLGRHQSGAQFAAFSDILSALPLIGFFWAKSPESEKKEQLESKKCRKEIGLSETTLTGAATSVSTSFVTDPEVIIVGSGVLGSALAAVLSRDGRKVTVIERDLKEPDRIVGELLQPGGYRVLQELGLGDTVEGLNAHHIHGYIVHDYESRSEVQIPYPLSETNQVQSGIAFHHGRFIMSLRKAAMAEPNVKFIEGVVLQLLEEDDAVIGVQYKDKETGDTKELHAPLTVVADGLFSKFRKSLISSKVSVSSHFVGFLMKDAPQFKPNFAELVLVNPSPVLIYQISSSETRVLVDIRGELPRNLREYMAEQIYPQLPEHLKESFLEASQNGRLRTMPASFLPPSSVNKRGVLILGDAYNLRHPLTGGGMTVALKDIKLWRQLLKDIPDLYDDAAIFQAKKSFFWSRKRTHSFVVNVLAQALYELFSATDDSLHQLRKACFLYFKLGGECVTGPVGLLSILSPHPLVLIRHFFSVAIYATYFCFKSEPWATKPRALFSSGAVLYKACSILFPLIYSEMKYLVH
Sequence of AEA-DA lipid probe targets in Neuro2a cells (Mus musculus, UniProt Q8VE88) (Q8VE88 whole entry): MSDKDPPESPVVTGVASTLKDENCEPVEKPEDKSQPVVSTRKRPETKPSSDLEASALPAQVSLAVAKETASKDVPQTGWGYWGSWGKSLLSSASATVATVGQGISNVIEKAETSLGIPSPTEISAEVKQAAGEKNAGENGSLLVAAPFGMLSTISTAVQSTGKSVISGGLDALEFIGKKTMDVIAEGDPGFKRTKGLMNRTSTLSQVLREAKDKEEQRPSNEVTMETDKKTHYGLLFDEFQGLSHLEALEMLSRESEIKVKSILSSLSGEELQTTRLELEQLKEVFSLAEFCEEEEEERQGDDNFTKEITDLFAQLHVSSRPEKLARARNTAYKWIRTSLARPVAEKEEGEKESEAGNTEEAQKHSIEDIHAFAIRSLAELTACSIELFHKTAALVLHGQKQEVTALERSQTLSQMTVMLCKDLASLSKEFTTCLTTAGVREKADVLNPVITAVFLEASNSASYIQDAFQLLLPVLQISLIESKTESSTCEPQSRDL

CCCCC/C=C\C/C=C\C/C=C\C/C=C\CCCC(=O)NCCO [AEA, anandamide, reference compound]
SILAC ratio, Abcb1b ([1]; competitor 200 μM): 2.3 | SILAC ratio, Calu ([2]; competitor 200 μM): 1.0 | SILAC ratio, Fam114a2 ([3]; competitor 200 μM): 1.4 | SILAC ratio, SQLE (Q14534) ([4]; competitor 200 μM): 1.9 | SILAC ratio Sqle ([4]; competitor 200 μM): 1.9 | SILAC ratio Slc25a10 ([5]; competitor 200 μM): 1.2 | SILAC ratio Dctpp1 ([6]; competitor 200 μM): 1.5 | SILAC ratio Bsg ([7]; competitor 200 μM): 1.3 | SILAC ratio Tmem206 ([8]; competitor 200 μM): 1.2 | SILAC ratio, HMOX2 (P30519) ([9]; competitor 200 μM): 3.2 | SILAC ratio, Hmox2 ([9]; competitor 200 μM): 3.2 | SILAC ratio, Timm17a ([10]; competitor 200 μM): 1.5

C=CCN(C)CCCCCCOc1ccc(C(=O)c2ccc(Br)cc2)c(F)c1 [Ro 48-8071, reference compound]
SILAC ratio, Abcb1b ([1]; competitor 25 μM): 1.7 | SILAC ratio, Calu ([2]; competitor 25 μM): 0.9 | SILAC ratio, Fam114a2 ([3]; competitor 25 μM): 1.6 | SILAC ratio, Soat1 ([11]; competitor 25 μM): 1.8 | SILAC ratio, SQLE (Q14534) ([4]; competitor 25 μM): 1.0 | SILAC ratio Sqle ([4]; competitor 25 μM): 1.0 | SILAC ratio Slc25a10 ([5]; competitor 25 μM): 0.9 | SILAC ratio Dctpp1 ([6]; competitor 25 μM): 0.8 | SILAC ratio Bsg ([7]; competitor 25 μM): 1.1 | SILAC ratio Tmem206 ([8]; competitor 25 μM): 0.6 | SILAC ratio, HMOX2 (P30519) ([9]; competitor 25 μM): 1.3 | SILAC ratio, Hmox2 ([9]; competitor 25 μM): 1.3 | SILAC ratio, Sar1a ([12]; competitor 25 μM): 1.1 | SILAC ratio, Timm17a ([10]; competitor 25 μM): 2.7

CN1CCN(C(=O)c2c(-c3ccccc3)c3cc([N+](=O)[O-])ccc3n2C)CC1 [KML110, (1-Methyl-5-nitro-3-phenyl-1H-indol-2-yl)(4-methylpiperazin-1-yl)methanone]
SILAC ratio, Abcb1b ([1]; competitor 25 μM): 5.7 | SILAC ratio, Calu ([2]; competitor 25 μM): 1.1 | SILAC ratio, Fam114a2 ([3]; competitor 25 μM): 2.2 | SILAC ratio Sqle ([4]; competitor 25 μM): 1.3 | SILAC ratio Slc25a10 ([5]; competitor 25 μM): 1.2 | SILAC ratio Dctpp1 ([6]; competitor 25 μM): 1.6 | SILAC ratio Bsg ([7]; competitor 25 μM): 1.3 | SILAC ratio Tmem206 ([8]; competitor 25 μM): 1.2 | SILAC ratio, Hmox2 ([9]; competitor 25 μM): 1.5 | SILAC ratio, Sar1a ([12]; competitor 25 μM): 1.4 | SILAC ratio, Timm17a ([10]; competitor 25 μM): 1.5

O=C(/C=C/c1cccnc1)NCCCCC1CCN(C(=O)c2ccccc2)CC1 [FK-866, reference compound]
SILAC ratio, Abcb1b ([1]; competitor 25 μM): 5.4 | SILAC ratio, Calu ([2]; competitor 25 μM): 1.0 | SILAC ratio, Fam114a2 ([3]; competitor 25 μM): 1.0 | SILAC ratio, Soat1 ([11]; competitor 25 μM): 2.3 | SILAC ratio, SQLE (Q14534) ([4]; competitor 25 μM): 1.1 | SILAC ratio Sqle ([4]; competitor 25 μM): 1.1 | SILAC ratio Slc25a10 ([5]; competitor 25 μM): 1.2 | SILAC ratio Dctpp1 ([6]; competitor 25 μM): 1.4 | SILAC ratio Bsg ([7]; competitor 25 μM): 1.0 | SILAC ratio Tmem206 ([8]; competitor 25 μM): 0.9 | SILAC ratio, HMOX2 (P30519) ([9]; competitor 25 μM): 1.0 | SILAC ratio, Hmox2 ([9]; competitor 25 μM): 1.0 | SILAC ratio, Sar1a ([12]; competitor 25 μM): 1.0 | SILAC ratio, Timm17a ([10]; competitor 25 μM): 1.1

CN1CCN(C(=O)c2[nH]c3ccc([N+](=O)[O-])cc3c2-c2ccccc2)CC1 [MJN228, (4-Methylpiperazin-1-yl)(5-nitro-3-phenyl-1H-indol-2-yl)methanone]
SILAC ratio, Abcb1b ([1]; competitor 10 μM): 2.6 | SILAC ratio, Abcb1b ([1]; competitor 25 μM): 4.0 | SILAC ratio, Abcb1b ([1]; competitor 50 μM): 9.4 | SILAC ratio, Abcb1b ([1]; competitor 100 μM): 20.0 | SILAC ratio, Calu ([2]; competitor 10 μM): 1.1 | SILAC ratio, Calu ([2]; competitor 25 μM): 1.5 | SILAC ratio, Calu ([2]; competitor 100 μM): 1.8 | SILAC ratio, Fam114a2 ([3]; competitor 10 μM): 1.6 | SILAC ratio, Fam114a2 ([3]; competitor 25 μM): 3.5 | SILAC ratio, Fam114a2 ([3]; competitor 50 μM): 4.1 | SILAC ratio, Fam114a2 ([3]; competitor 100 μM): 7.6 | SILAC ratio, Soat1 ([11]; competitor 10 μM): 1.2 | SILAC ratio, Soat1 ([11]; competitor 25 μM): 2.6 | SILAC ratio, SQLE (Q14534) ([4]; competitor 25 μM): 1.5 | SILAC ratio Sqle ([4]; competitor 10 μM): 1.3 | SILAC ratio Sqle ([4]; competitor 25 μM): 1.5 | SILAC ratio Sqle ([4]; competitor 100 μM): 2.1 | SILAC ratio Slc25a10 ([5]; competitor 10 μM): 1.2 | SILAC ratio Slc25a10 ([5]; competitor 25 μM): 1.2 | SILAC ratio Slc25a10 ([5]; competitor 50 μM): 1.3 | SILAC ratio Slc25a10 ([5]; competitor 100 μM): 1.0 | SILAC ratio Dctpp1 ([6]; competitor 25 μM): 1.2 | SILAC ratio Dctpp1 ([6]; competitor 50 μM): 1.0 | SILAC ratio Dctpp1 ([6]; competitor 100 μM): 1.0 | SILAC ratio Bsg ([7]; competitor 10 μM): 1.4 | SILAC ratio Bsg ([7]; competitor 25 μM): 1.6 | SILAC ratio Bsg ([7]; competitor 50 μM): 1.2 | SILAC ratio Bsg ([7]; competitor 100 μM): 1.6 | SILAC ratio Tmem206 ([8]; competitor 10 μM): 1.1 | SILAC ratio Tmem206 ([8]; competitor 25 μM): 1.3 | SILAC ratio Tmem206 ([8]; competitor 100 μM): 0.7 | SILAC ratio, HMOX2 (P30519) ([9]; competitor 25 μM): 1.4 | SILAC ratio, Hmox2 ([9]; competitor 10 μM): 1.1 | SILAC ratio, Hmox2 ([9]; competitor 25 μM): 1.4 | SILAC ratio, Hmox2 ([9]; competitor 50 μM): 1.3 | SILAC ratio, Hmox2 ([9]; competitor 100 μM): 1.7 | SILAC ratio, Sar1a ([12]; competitor 10 μM): 1.3 | SILAC ratio, Sar1a ([12]; competitor 25 μM): 1.7 | SILAC ratio, Sar1a ([12]; competitor 50 μM): 1.7 | SILAC ratio, Sar1a ([12]; competitor 100 μM): 2.2 | SILAC ratio, Timm17a ([10]; competitor 10 μM): 1.1 | SILAC ratio, Timm17a ([10]; competitor 25 μM): 1.4 | SILAC ratio, Timm17a ([10]; competitor 50 μM): 1.4 | SILAC ratio, Timm17a ([10]; competitor 100 μM): 2.7
